≈ marks a conversion by molar mass, not a printed value. Where two headings read alike, the source gives them in different places.
Experiments:
[1] = test system: aorta ring, formation of new vessels (angiogenesis); assay: Aorta ring model of neovascularisation (inhibition of angiogenesis); type: cell-based; details: aorta ring in culture medium, final concentration 10^−6 M, 10^−7 M
Source text: In order to study the potential effects of the complex Compound I-cyclodextrine, a model of neovascularisation has been used. An aorta ring is cut and placed in a culture medium. This culture medium containing either: • no active principle • the complex compound I-cyclodextrins (final concentration 10-^6M, 10^−7M) • compound I dissolved in DMSO with the help of […] (final concentration 10-^6, 10-^7M).

[2] = Differential solubility in acetonitrile of free and complexed compound I; type: physicochemical; details: organic solvent or mixture; free compound
Source text: Compound I has different solubility when it is in the complex form or not. […] In these conditions the included drug remains trapped and becomes insoluble in the solvent. This technique of differential solubility between compound I in the free or in the complexed form can be applied to evaluate the percentage of complexation.

[3] = Phase solubility studies with L-lysine solution as adjuvant (25° C., 7 days, LC); type: physicochemical
Protocol: Solubility studies were performed as described by Higuchi, T., and Connors, K. A., Advances in Analytical Chemistry and Instrumentation 4 (1965) 117-212. Excess amounts of Compound I were added to increasing concentrations of HP-β-CD (0-200 mM) in 5 ml dissolution media, either purified water or L-lysine solutions (50 mM or 500 mM). The glass containers were sealed and the suspensions were shaken in a water-bath at 25° C. until complexation equilibrium was reached (7 days). An aliquot was filtered through a 0.45 μm PVDF membrane filter and assayed for Compound I content by a validated liquid chromatography (LC) method.

[4] = test system: allergen-induced airway inflammation and bronchial hyperresponsiveness in a mouse model of asthma; assay: Mouse model of asthma, inhalation, short exposure challenge; details: inhalation of Compound I 40 mg/ml in pure DMSO, short-term exposure, vs DMSO alone
Protocol: Two protocols referred to as short exposure challenge and long-term exposure challenge were used. […] No inhalations were performed during even weeks.
(§1) The aerosol were produced by using an ultrasonic nebuliser SYSTAM (Système Assistance Medical, Le Ledat, France), the vibration frequency of which is 2.4 MHz with variable vibration intensity and ventilation levels. Vibration intensity was fixed in position 6 and the ventilation level was 25(v1/2) l/min.
Twenty-four hours after the last allergen exposure, the bronchial hyper responsiveness was determined by measuring the Penh using a barometric plethysmograph as proposed by Hamelmann, E., et al., Am. […] The Penh was measured at baseline and 5 min after the inhalation of increasing doses (25, 50, 75 and 100 mM) of methacholine (Mch).
Immediately after the assessment of airway responsiveness, mice were sacrificed and 1 ml of PBS free of ionised calcium and magnesium but supplemented with 0.05 mM sodium EDTA was instilled 4 times via a tracheal cannula and recovered by gentle manual aspiration. The recovered bronchoalveolar lavage fluid (BAL) was centrifuged (1800 rpm for 10 min at 4° C.). The cell pellet was washed twice and finally resuspended in 1 ml of PBS. A total cell count was performed in a Thoma chamber and the differential cell counts on at least 400 cells were performed on cytocentrifuged preparations (Cytospin 2; Cytospin, Shandon td., Runcorn, Cheshire, U.K.) using standard morphologic criteria after staining with Diff-Quick (Dade, Germany). After BAL, the thorax was opened and the left main bronchus was clamped. […] Sections of 5 μm thickness from all lobes were stained with haematoxylin and eosin. The extent of peribronchial infiltrates was estimated by an inflammation score. […] A value from 0 to 3 per criteria was adjudged to each tissue section scored. […] As 5-7 randomly selected tissue sections per mouse were scored, inflammation scores could be expressed as a mean value per animal and could be compared between groups.

[5] = test system: allergen-induced airway inflammation in a mouse model of asthma; assay: Mouse model of asthma, inhalation, long-term exposure challenge (11 weeks); details: aerosol, long term (11 weeks) allergen exposure, p<0.01
Protocol: Intraperitoneal injections were performed 30 min before OVA inhalations. […] Two protocols referred to as short exposure challenge and long-term exposure challenge were used. […] No inhalations were performed during even weeks.
as §1
Immediately after the assessment of airway responsiveness, mice were sacrificed and 1 ml of PBS free of ionised calcium and magnesium but supplemented with 0.05 mM sodium EDTA was instilled 4 times via a tracheal cannula and recovered by gentle manual aspiration. […] After BAL, the thorax was opened and the left main bronchus was clamped. […] Another score referred to as tissue eosinophil infiltration score, specifically reflecting the amounts of eosinophils infiltrating the bronchial walls, was measured as follows: after a congo red staining, seven bronchi were studied per mouse. The eosinophils were counted around the bronchi within the limits of the airway wall, the perimeter of the epithelial basement membrane was measured and the results were expressed as number of eosinophils/mm of basement membrane.

[6] = test system: allergen-induced airway inflammation in a mouse model of asthma; assay: Mouse model of asthma, intraperitoneal injection of Compound I; type: in vivo, mice
Protocol: No inhalations were performed during even weeks.

[7] = Phase solubility studies of Compound I with cyclodextrins (excess compound, 7 days, 37° C., HPLC); type: physicochemical; details: for solubility at 7 days: 37 °C, thermodynamic from solid
Protocol: At the time of a complex formation, compound I, practically insoluble in water (<0.6 μg/ml, MW: 485), solubilizes dramatically. The increase in the solubility of compound I is thus proof of a complex formation between Compound I and the CD. Complex formation and achievement of the equilibrium is found at 20% after 1 day, 40% after 4 days, and 100% after 7 days. The solubility diagrams (FIG. 1) are carried out by adding an excess of compound I to the CD solutions of increasing concentration. After 7 days of stirring in thermostatically controlled baths at 37° C., these solutions are filtered and the solubilized compound I quantity is dosed by HPLC. The βCD and the γCD as well as their synthetic derivatives have allowed complexes with compound I to be formed. The β-CD and the HPβCD come from ROQUETTE (France), the RMβCD and the γCD have been supplied by Wacker (Germany).
The flasks containing compound I and the cyclodextrins are placed being stirred in thermostatically controlled baths at 37° C. for 7 days, so that the complexation balance is reached. After this time, the suspensions are filtered with the help of a milli-pore filter 0.22 μm in PVDF and the filtrate is dissolved in DMSO in the mobile phase to obtain concentration samples situating themselves on the calibrating line. They are then dosed thanks to the validated HPLC method, described below.
Mobile phase: mixture of phosphate buffer 0.05 M to pH=3 and methanol (30/70, v/v). Gas is extracted by an ultrasound passage for 15 minutes, output: 1 ml/min, λ of U.V. detection: 265 nm, Working temperature: 30° C., Injection volume: 20 μl.
The results of the HPLC dosages of Compound I are reproduced in the tables below (Tables 1 to 4) for each cyclodextrin.

O=C1NC(=O)C(c2ccc(-c3ccccc3)cc2)(N2CCN(c3ccc([N+](=O)[O-])cc3)CC2)C(=O)N1 [Compound I, 5-Biphenyl-4-yl-5-[4-(4-nitro-phenyl)-piperazin-1-yl]pyrimidine-2,4,6-trione]
Angiogenesis (formation of new vessels) [1]: inhibited significantly | solubility [2]: ~700 µg/mL (≈ 1440 µM) | Increase of aqueous solubility ([3]; 200 mM HP-β-CD, absence of L-lysine): approximately 10,000 fold | Increase of aqueous solubility ([3]; 500 mM of L-lysine and 200 mM of HP-β-CD): 70,000 fold | Solubility with HP-β-CD (200 mM) ([3]; Purified Water, 25° C.): 5530 µg/mL | BAL eosinophils ([4]; p<0.005): significant decrease | Peribronchial inflammation scores ([4]; p<0.01): significant decrease | Bronchial hyperresponsiveness ([4]; p<0.05): significant decrease | Tissue eosinophil infiltration score [5]: decreased | Peribronchial inflammation scores ([6]; 3.75 to 30 mg/kg, equal efficacy of all tested formulations): significantly lowered | Tissue eosinophil infiltration score ([6]; doses of 7.5 and 25 mg/kg): significantly lowered | Allergen-induced airway eosinophilic inflammation in BAL ([6]; solution or precipitate, 3.75 to 30 mg/kg, compared to placebo, OVA-sensitized mice): lowered | solubility at 7 days ([7]; HPβCD solution, aqueous with cosolvent or surfactant or cyclodextrin, HPβCD, maximum concentration used 200 mM, read-out: Maximum solubility): 4960 µg/mL (≈ 10200 µM) | Concentration of Compound I (solubility) ([7]; RMβCD 10 mM, 37° C., 7 days): 120.6 µg/mL | solubility at 7 days ([7]; RMβCD solution, aqueous with cosolvent or surfactant or cyclodextrin, RMβCD, maximum concentration used 200 mM, read-out: Maximum solubility): 11900 µg/mL (≈ 24600 µM) | Complex formation and achievement of the equilibrium ([7]; after 1 day): 20% | Complex formation and achievement of the equilibrium ([7]; after 4 days): 40% | Complex formation and achievement of the equilibrium ([7]; after 7 days): 100% | K1:1 (stability constant) ([7]; complex with HP-βCD): 12575 M⁻¹ | K1:2 (stability constant) ([7]; complex with HP-βCD): 14.4 M⁻¹ | K1:1 (stability constant) ([7]; complex with RMβCD): 27595 M⁻¹ | K1:2 (stability constant) ([7]; complex with RMβCD): 22.88 M⁻¹ | K1:1 (stability constant) ([7]; complex with βCD): 2092 M⁻¹ | K1:1 (stability constant) ([7]; complex with γCD): 346 M⁻¹ | solubility at 7 days ([7]; cyclodextrin solution, aqueous with cosolvent or surfactant or cyclodextrin, HPβCD 10 mM, 37° C., 7 days, read-out: Concentration of Compound I (solubility)): 188 µg/mL (≈ 387 µM) | solubility at 7 days ([7]; cyclodextrin solution, aqueous with cosolvent or surfactant or cyclodextrin, HPβCD 25 mM, 37° C., 7 days, read-out: Concentration of Compound I (solubility)): 213 µg/mL (≈ 440 µM) | solubility at 7 days ([7]; cyclodextrin solution, aqueous with cosolvent or surfactant or cyclodextrin, HPβCD 50 mM, 37° C., 7 days, read-out: Concentration of Compound I (solubility)): 236 µg/mL (≈ 486 µM) | solubility at 7 days ([7]; cyclodextrin solution, aqueous with cosolvent or surfactant or cyclodextrin, HPβCD 75 mM, 37° C., 7 days, read-out: Concentration of Compound I (solubility)): 1130 µg/mL (≈ 2330 µM) | solubility at 7 days ([7]; cyclodextrin solution, aqueous with cosolvent or surfactant or cyclodextrin, HPβCD 100 mM, 37° C., 7 days, read-out: Concentration of Compound I (solubility)): 1660 µg/mL (≈ 3430 µM) | solubility at 7 days ([7]; cyclodextrin solution, aqueous with cosolvent or surfactant or cyclodextrin, HPβCD 150 mM, 37° C., 7 days, read-out: Concentration of Compound I (solubility)): 3110 µg/mL (≈ 6400 µM) | solubility at 7 days ([7]; cyclodextrin solution, aqueous with cosolvent or surfactant or cyclodextrin, HPβCD 200 mM, 37° C., 7 days, read-out: Concentration of Compound I (solubility)): 4960 µg/mL (≈ 10200 µM) | solubility at 7 days ([7]; cyclodextrin solution, aqueous with cosolvent or surfactant or cyclodextrin, RMβCD 25 mM, 37° C., 7 days, read-out: Concentration of Compound I (solubility)): 527 µg/mL (≈ 1080 µM) | solubility at 7 days ([7]; cyclodextrin solution, aqueous with cosolvent or surfactant or cyclodextrin, RMβCD 50 mM, 37° C., 7 days, read-out: Concentration of Compound I (solubility)): 1530 µg/mL (≈ 3150 µM) | solubility at 7 days ([7]; cyclodextrin solution, aqueous with cosolvent or surfactant or cyclodextrin, RMβCD 75 mM, 37° C., 7 days, read-out: Concentration of Compound I (solubility)): 3010 µg/mL (≈ 6200 µM) | solubility at 7 days ([7]; cyclodextrin solution, aqueous with cosolvent or surfactant or cyclodextrin, RMβCD 100 mM, 37° C., 7 days, read-out: Concentration of Compound I (solubility)): 4680 µg/mL (≈ 9630 µM) | solubility at 7 days ([7]; cyclodextrin solution, aqueous with cosolvent or surfactant or cyclodextrin, RMβCD 150 mM, 37° C., 7 days, read-out: Concentration of Compound I (solubility)): 8320 µg/mL (≈ 17100 µM) | solubility at 7 days ([7]; cyclodextrin solution, aqueous with cosolvent or surfactant or cyclodextrin, RMβCD 200 mM, 37° C., 7 days, read-out: Concentration of Compound I (solubility)): 12000 µg/mL (≈ 24600 µM) | solubility at 7 days ([7]; cyclodextrin solution, aqueous with cosolvent or surfactant or cyclodextrin, concentrations above 8 mM βCD, read-out: Solubility of additional complex of 1:2 stoichiometry (Cpd. I: βCD)): 1.5 µg/mL (≈ 3.09 µM) | solubility at 7 days ([7]; cyclodextrin solution, aqueous with cosolvent or surfactant or cyclodextrin, in the presence of HPβCD, CD 2 mM, 37° C., 7 days, read-out: Concentration of Compound I (solubility)): 2.4 µg/mL | solubility at 7 days ([7]; cyclodextrin solution, aqueous with cosolvent or surfactant or cyclodextrin, in the presence of HPβCD, CD 4 mM, 37° C., 7 days, read-out: Concentration of Compound I (solubility)): 6.8 µg/mL | solubility at 7 days ([7]; cyclodextrin solution, aqueous with cosolvent or surfactant or cyclodextrin, in the presence of HPβCD, CD 8 mM, 37° C., 7 days, read-out: Concentration of Compound I (solubility)): 6.6 µg/mL | solubility at 7 days ([7]; cyclodextrin solution, aqueous with cosolvent or surfactant or cyclodextrin, in the presence of HPβCD, CD 10 mM, 37° C., 7 days, read-out: Concentration of Compound I (solubility)): 3.4 µg/mL | solubility at 7 days ([7]; cyclodextrin solution, aqueous with cosolvent or surfactant or cyclodextrin, in the presence of HPβCD, CD 12 mM, 37° C., 7 days, read-out: Concentration of Compound I (solubility)): 1.6 µg/mL | solubility at 7 days ([7]; cyclodextrin solution, aqueous with cosolvent or surfactant or cyclodextrin, in the presence of HPβCD, CD 16 mM, 37° C., 7 days, read-out: Concentration of Compound I (solubility)): 1.5 µg/mL | solubility at 7 days ([7]; cyclodextrin solution, aqueous with cosolvent or surfactant or cyclodextrin, γCD 10 mM, 37° C., 7 days, read-out: Concentration of Compound I (solubility)): 1.3 µg/mL (≈ 2.68 µM) | solubility at 7 days ([7]; cyclodextrin solution, aqueous with cosolvent or surfactant or cyclodextrin, γCD 100 mM, 37° C., 7 days, read-out: Concentration of Compound I (solubility)): 19.5 µg/mL (≈ 40.2 µM) | solubility at 7 days ([7]; cyclodextrin solution, aqueous with cosolvent or surfactant or cyclodextrin, γCD 200 mM, 37° C., 7 days, read-out: Concentration of Compound I (solubility)): 29.1 µg/mL (≈ 59.9 µM) | solubility at 7 days ([7]; water without cyclodextrin, water, without cyclodextrin, read-out: Solubility in water): < 0.6 µg/mL | solubility at 7 days ([7]; βCD solution, aqueous with cosolvent or surfactant or cyclodextrin, βCD, maximum concentration used 4 mM, read-out: Maximum solubility): 6.8 µg/mL (≈ 14 µM) | solubility at 7 days ([7]; γCD solution, aqueous with cosolvent or surfactant or cyclodextrin, γCD 25 mM, 37° C., 7 days, read-out: Concentration of Compound I (solubility)): 3.2 µg/mL (≈ 6.59 µM) | solubility at 7 days ([7]; γCD solution, aqueous with cosolvent or surfactant or cyclodextrin, γCD 50 mM, 37° C., 7 days, read-out: Concentration of Compound I (solubility)): 11.4 µg/mL (≈ 23.5 µM) | solubility at 7 days ([7]; γCD solution, aqueous with cosolvent or surfactant or cyclodextrin, γCD 75 mM, 37° C., 7 days, read-out: Concentration of Compound I (solubility)): 13.6 µg/mL (≈ 28 µM) | solubility at 7 days ([7]; γCD solution, aqueous with cosolvent or surfactant or cyclodextrin, γCD, maximum concentration used 200 mM, read-out: Maximum solubility): 29.1 µg/mL (≈ 59.9 µM)
